Entries after “also recorded” stand apart in the source; their conditions may differ.

Test [1] concerns CD3+ CD4+ T-cells of RhD-alloimmunised donors. Description: Three colour flow cytometry of CD3, CD4 and intracellular IFN-γ or IL-10 in PBMC from RhD-alloimmunised donors. It is filed as cell-based, human. The following applies: CD3+ gated, representative alloimmune donor, 5 days; for proportion of CD4+ IL-10+ T-cells: unstimulated cultures 2.4%; for proportion of CD4+ IFN-γ+ T-cells: unstimulated cultures 4.2%. The procedure: (§1) The secretion of cytokines identified in Example 1.3 by T-helper cells is confirmed by flow cytometery analysis. Simultaneous measurement of surface molecules CD3 and CD4 and intracellular cytokines IFN-γ or IL-10 was carried out using three colour flow cytometry analysis in PBMC, isolated from RhD-alloimmunised donors, cultured with either no antigen or RhD peptide for five days after stimulation. All analysis was carried out using Expo v2 analysis software (applied Cytometry Systems). The CD3+ T-cells were gated open and the numbers of IFN-γ+ and CD4+ cells were assessed. In all donors tested there was a significant increase in the proportion of CD4+ IFN-γ+CD3+ T-cells to at least one of the RhD peptides tested. In the representative example shown in FIGS. 12A to 12L it can be seen that the proportion of CD4+ IFN-γ+cells was 4.2% in unstimulated cultures (FIG. 12E). […] The IL-10 and CD4+ expression was also assessed on CD3+ gated population of T-cells. In PBMC cultures isolated from the alloimmune donor shown, there was an increase in the proportion of CD4+ IL-10+T-cells from 2.4% in unstimulated PBMC cultures (FIG. 12I) to 6.5% in culture stimulated with RhD peptide 13 (FIG. 12J) to 6.2% in cultures stimulated with RhD peptide 17 (FIG. 12K) and 5.9% with RhD peptide 28 (FIG. 12L).
On the technique in general: In flow cytometry, cells or beads pass a laser one at a time.

For the next test, the system named is HLA-DR15 transgenic mice. The test is described as follows: Tolerisation in vivo to RhD protein in HLA-DR15 transgenic mice. The procedure: HLA-DR15 transgenic mice were immunised twice with 2 mg/ml purified RhD protein. The first subcutaneous injection was followed 14 days later by an intraperitoneal injection. Mice were sacrificed 14 days after the final injection. The spleen was removed and blood collected by cardiac puncture.
Fourteen days before RhD immunisation (as above) 25 μl of 2 mg/ml soluble RhD peptides were administered by the intranasal route.
Fourteen days before RhD immunisation (as above) 25 μl of 2 mg/ml soluble RhD peptides were administered by the subcutaneous route.
Splenocytes were homogenised and a single cell suspension was isolated over 40 μm mesh filters (Becton Dickinson) and resuspended to 1.25×10^6 cells/ml in the Alpha Modification of Eagle's Medium (ICN Flow, Bucks UK) supplemented with 5% autologous serum, 4 mM L-Glutamine (Gibco, Paisley, UK), 100 U/ml sodium benzylpenicillin G (Sigma), 100 μg/ml streptomycin sulphate (Sigma), 5×10^−5 2-mercaptoethanol (Sigma) and 20 mM HEPES pH7.2 (Sigma). All plates were incubated at 37° C. in a humidified atmosphere of 5% CO2/95% air. The cell proliferation in cultures was estimated from the incorporation of ^3H-thymidine (Amersham) in triplicate wells 5 days after stimulation with antigen. Proliferation results are presented either as the mean CPM±SD of the triplicate samples, or as a stimulation index (SI) expressing the ratio of mean CPM in stimulated versus unstimulated control cultures. An SI>3 with CPM>500 is interpreted as representing a positive response.
Round bottomed microtitre plates (Nunc, Roskilde, Denmark) were blocked in phosphate buffered saline pH 7.4 (PBS) containing 0.2% bovine serum albumin (BSA), before addition of 50 μl 2% v/v washed human D-positive RBC. Test sera were incubated at 50 μl per well with triplicate RBC samples for 1 hour at 37° C. and washed three times in PBS-BSA before fixing for 30 minutes in 0.15% glutaraldehyde (Sigma, Dorset, UK) to prevent lysis of the cells in the alkaline conditions required later in the test. The fixed RBC were transferred to fresh, pre-blocked, 96-well plates and washed before incubation with 50 μl per well 1 μg/ml goat anti-mouse IgG γ-chain specific antibody (Sigma) or goat anti-mouse IgM μ-chain specific antibody (Sigma) for 1 hour at 37° C. After washing, the plates were incubated with 50 μl per well 1 μg/ml rabbit anti-goat IgG alkaline phosphatase (Sigma) for 1 hour at 37° C., washed, and 100 μl of phosphatase substrate solution was then incubated in each well for 1 hour at 37° C. After pelleting of the RBC by centrifugation, 50 μl of each supernatant was transferred into the wells of fresh, flat-bottomed microtitre plates (Nunc) and the absorbance measured at 405 nm, with 492 nm as a reference, using a multiscan plate reader (Labsystems, Basingstoke, UK). Each result is expressed as the mean of triplicate wells. Inter-assay variation was controlled for by including previously tested RBC samples on each plate.
It is known from other animal models (Elson C J & Barker R N. Helper T-cells in antibody mediated, organ specific autoimmunity. Curr Opin Immunol, 2000; 12:664-669) that mucosal administration of immunodominant peptides which induce an immune response when given with adjuvant by the parenteral route will inhibit responsiveness, and induce antigen specific tolerance. To test the effectiveness of peptides containing immunodominant allo-RhD helper epitopes in preventing antibody response to the RhD protein, HLA-DR15 transgenic mice were used for the in vivo testing of these peptides as most alloimmunised donors responding to RhD bear this MHC class II allele.

Test [2] deals with PBMC from RhD alloimmunised donors. Description: Cell proliferation assay (3H-thymidine) of PBMC from RhD alloimmunised donors stimulated with RhD peptides. It is filed as cell-based, human. The following applies: peptide 20 μg/ml, 5 days. How it is done: Five complete panels of 68 15-mer peptides, with 5 or 10 amino acid overlaps, were synthesized (Multiple Peptide Service, Cambridge Research Biochemicals, Cheshire, UK and Dept. Of Biochemistry, University of Bristol, UK), corresponding to the sequences of the 30 kD Rh proteins associated with expression of the RhD or RhcE/ce/Ce/CE blood group antigens respectively (Tables 1 to 5). An additional three peptide sequences is added to the panel of RhD peptides to account for the Ile to Met substitution described earlier (numbered from 69 to 71). The amino acid sequences for each of these proteins were deduced from cDNA analyses (FIG. 1). In order to ensure purity, each panel was synthesized by fluorenylmethoxycarbonyl chemistry on resin using a base-labile linker, rather than by conventional pin technology, and randomly selected peptides were screened for purity by HPLC and amino acid analysis.
Peripheral blood mononuclear cells (PBMC) from donors or patients were separated from fresh blood samples using Ficoll-Hypaque. The donors and patients had become alloimmunised with RhD-positive blood either through pregnancy, a blood transfusion or through immunization with the relevant blood.
PBMC were cultured in 100 μl volumes in microtitre plates at a concentration of 1.25×10^6 cells/ml in an Alpha Modification of Eagle's Medium (ICN Flow, Bucks UK) supplemented with 5% autologous serum, 4 mM L-Glutamine (Gibco, Paisley, UK), 100 U/ml sodium benzylpenicillin G (Sigma), 100 μg/ml streptomycin sulphate (Sigma), 5×10^−5M 2-mercaptoethanol (Sigma) and 20 mM HEPES pH7,2 (Sigma). All plates were incubated at 37° C. in a humidified atmosphere of 5% CO2/95% air. The cell proliferation in cultures was estimated from the incorporation of ^3H-Thymidine in triplicate wells 5 days after stimulation with antigen as described previously. Proliferation results are presented either as the mean CPM+/−SD of the triplicate samples, or as a stimulation index (SI), expressing the ratio of mean CPM in stimulated versus unstimulated control cultures. An S1>3 with CPM>1000 is interpreted as representing a positive response.

The subject of test [3] is CD3+ CD4+ T-helper cells of AIHA patients. Description: Flow cytometry of CD3, CD4 and intracellular cytokines in PBMC from AIHA patients. It is filed as cell-based, human. The conditions noted are these: AIHA patient; for CD3+ CD4+ population of T-helper cells: FIGS. 23A to 23D; for CD4+ T-helper cells expressing intracellular IFN-γ: FIGS. 23E to 23H. How it is done:
as §1
The secretion of cytokines identified in Example 2.3 by T-cells is confirmed utilising the experiments mentioned in Example 1.4, which were repeated using PBMC isolated from patients with AIHA.

The subject of test [4] is PBMC from RhD-alloimmunised donors. Description: celELISA of cytokine production (IL-10, TGF-β1) by PBMC from RhD alloimmunised donors. The test is classed as cell-based, human. The procedure:
Cultured T-cells are stimulated with each of the epitopes given in Table 1 and after 5 days the responding cells were transferred to flat-bottomed microtitre plates (96-well Nunc-Immuno Maxisorp) coated with […] per well of monoclonal anti-cytokine capture antibody diluted in 0.05M alkaline carbonate coating buffer pH 9.6. Unbound capture antibody was removed by two washes with HBSS and non-specific binding potential blocked by incubation with 200 μl per well of phosphate buffered saline, pH 7.4 (PBS containing 3% BSA).
Five days after stimulation, lymphocyte cultures were mixed to resuspend the cells and duplicate 100 μl aliquots were transferred into wells coated with the respective capture antibody specific for IFN-γ, IL-10 or TGF-β. The plates coated with capture antibodies and layered by lymphocytes were then incubated for a further 24 hours at 37° C. in a humidified atmosphere of 5% CO2 and 95% air. After this incubation the PBMC were removed by four washes with 0.2% Tween/PBS. One hundred microlitre aliquots of the appropriate biotinylated monoclonal detection antibody in 0.2% BSA/PBS were then added to the wells and incubated at room temperature for 45 minutes.
After six washes with 0.5% Tween/PBS, 100 μl of 1:100,000 ExtrAvidin-alkaline phosphatase conjugate (Sigma) was then added to each of the wells and incubated at room temperature for 30 minutes. The ExtrAvidin conjugate was removed by eight washes with 0.2% Tween/PBS, and the plates developed using 100 μl per well of p-nitrophenyl phosphate (Sigma) 1.0 mg/ml in 0.05M carbonate alkaline buffer pH9.6. The absorbance at 405 nm was then measured using a Multiscan plate reader (Labsystems Basingstoke UK).
Cytokine secretion was measured by interpolation from a standard curve generated by incubating duplicate wells with doubling dilutions of recombinant human IFN-γ or IL-10 or TGF-β (Pharmingen). The standard curves were modelled by a smoothed cubic spline function applied to the absorbance reading and the cytokine concentrations after a quasilogarithmic transformation, where: quasiloge(z)=loge[z+{square root}[z^2+1]).
Using celELISA technique, the 68 RhD peptide panel was screened for the ability to induce IL-10 and TGF-β production for PBMC from a total of 19 samples from 12 different alloimmune donors. PMBC from 10 out of the 12 RhD-alloimmunised donors could produce IL-10 to at least one of the RhD peptides on at least one occasion, with a total of 194 significant IL-10 responses to the RhD peptides between all the donors. The RhD peptides that induced significant TGF-β or IL-10 and proliferative responses from PBMC in all the samples screened are summarised in FIGS. 10 and 11.

The mark [5] stands for this setting: peptide intranasal 14 days before RhD immunisation.
Where [6] appears, read: nasal administration of peptide prior to RhD immunisation.
[7] abbreviates: peptide parenteral (subcutaneous) before RhD immunisation.

Regarding “AYFGLSVAWCLPKPL (Residue 177-191 RhD; listed as Homo sapiens) [peptide 28]”, in test [1], the “proportion of CD4+ IL-10+ T-cells” value turned out to be 5.9% and the “proportion of CD4+ IFN-γ+ T-cells” value turned out to be 10.2%. The “RhD-specific proliferation by splenocytes after prior tolerisation” value (from here on “RhD-specific proliferation”) with HLA-DR15 transgenic mice (setting [5]) is “reduction in the RhD-specific proliferation”. Moreover, in test [2], the “proliferative T-cell response to RhD peptides” value (“proliferative T-cell response” for short) is “most commonly targeted”.

As for “FLSQFPSGKVVITLF (Residue 97-111 RhD; listed as Homo sapiens) [peptide 13]”, the “proportion of CD4+ IL-10+ T-cells” value in test [1] is recorded as 6.5%. In addition, the “RhD-specific proliferation” value with HLA-DR15 transgenic mice (setting [5]) is on record as “reduction in the RhD-specific proliferation”. Also, the “proliferative T-cell response” value in test [2] is listed as “most commonly targeted”.

For the sequence “GALFLWMFWPSFNSA (Residue 212-226 RhD; listed as Homo sapiens) [compound 35]”, in test [3], the “CD3+ CD4+ population of T-helper cells” value is “expansion of a CD3+ CD4+population of T-helper cells” and the “CD4+ T-helper cells expressing intracellular IFN-γ” value is reported as “expansion of CD4+ T-helper cells that express intracellular IFN-γ”.

On to “QDLTVMAAIGLGFLT (Residue 52-66 RhD; listed as Homo sapiens) [peptide 6]”, for which the “RhD-specific proliferation” value in the test on HLA-DR15 transgenic mice (setting [5]) is “reduction in the RhD-specific proliferation”; in the test with HLA-DR15 transgenic mice (peptide intranasal 14 days before RhD immunisation, listed as p6), “reduced T-cell response to RhD protein”. For the same sequence, the “serum anti-human RBC antibody, rr red blood cells” value with HLA-DR15 transgenic mice (peptide intranasal before RhD immunisation) is “reduction of anti-human RBC antibody”. Further, in test [4] (FIG. 3 and FIG. 10), the “IL-10 production by PBMC” value was “commonly induce the production of IL-10; also recorded: induce IL-10 production in the absence of a proliferative response or the production of IFN-γ or IL-4”. In addition, the “proliferative T-cell response” value in test [2] was “most commonly targeted”.

In the case of “SIRLATMSALSVLIS (Residue 112-126 RhD; listed as Homo sapiens) [peptide 16]”, in the test on HLA-DR15 transgenic mice (setting [6]), the “IL-10 production by draining lymph node cells” value is “increase” and the “TGF-β1 production by draining lymph node cells” value was “increase”. Also, the “TGF-β1 production by PBMC” value in test [4] (FIG. 3 and FIG. 11) is recorded as “commonly induce the production of TGF-β1”. Also, the “proliferative T-cell response” value in test [2] is listed as “most commonly targeted”.

In the case of “TMSALSVLISVDAVL (Residue 117-131 RhD; listed as Homo sapiens) [peptide 17]”, in test [1], the “proportion of CD4+ IL-10+ T-cells” value is given as 6.2% and the “proportion of CD4+ IFN-γ+ T-cells” value was 20.3%. The “RhD-specific proliferation” value in the test with HLA-DR15 transgenic mice (setting [5]) is recorded as “reduction in the RhD-specific proliferation”. In addition, the “proliferative T-cell response” value in test [2] is “most commonly targeted; also recorded: induces significant PBMC proliferation”. In addition, the “percentage of donors in whom a proliferative response was elicited” value in test [2] (SI>3 with CPM>1000 positive, FIG. 6) was 70%.

With “VGAGNGMIGFQVLLS (Residue 352-366 RhD; listed as Homo sapiens) [compound 60]”, in test [3], the “CD3+ CD4+ population of T-helper cells” value is on record as “expansion of a CD3+ CD4+population of T-helper cells” and the “CD4+ T-helper cells expressing intracellular IFN-γ” value is on record as “expansion of CD4+ T-helper cells that express intracellular IFN-γ”. In the test on HLA-DR15 transgenic mice (setting [7]), the “RhD-specific proliferation” value was “reduced T-cell response to RhD protein” and the “serum anti-human RBC antibody, rr red blood cells” value was “no change”.

The values above are taken from US20050069544A1, “Pharmaceutical composition and a method of treatment” (priority 1998, published 2005).
